Data: patent US20080214844A1, “Icaritin and desmethylicaritin as anti-cancer agents” (priority 2007, published 2008)

Legend:
D145 = experiment: MTT cell viability assay, D145; format: cell-based, human; conditions: D145, Prostate, 3 days culture
Protocol: (§1) 26 cancer cell lines were grown in normal growth medium in the presence of different concentrations Icaritin or Desmethylicaritin. After culture for 3 days, the cell viability was then measured by an MTT assay. […] Some EC50s were lower than 10 uM for these two compounds. […] Whereas, normal human mammary gland epithelial cells (MCF10A) were not sensitive to Icaritin and Desmethylicaritin. These cells grew well when treated with these two compounds at a concentration of 50 uM.

[1] = system: LNCaP cells and MDA-MB-231 cells; experiment: Synthesis of lipid classes in cancer cells; format: cell-based, human
Protocol: Icaritin and Desmethylicaritin decrease Lipogenesis in Prostate and Breast Cancer cells via inhibition of fatty acid synthase (FAS) Activity. Protein extracts from LNCaP cells, which had been ^14C-labeled with malonyl-CoA, were pretreated with these two compounds. A concentration of 0.5 μM Icaritin or Desmethylicaritin reduced the in vitro enzymatic FAS activity to less than 50%. […] Consistent with their FAS inhibitory effect, inhibition of lipogenesis by Icaritin and Desmethylicaritin affected the synthesis of phospholipids (including phosphatidylcholine, phosphatidylethanolamine, phosphatidylinositol, phosphatidylserine, and sphingomyelin) and of triglycerides in LNCaP cells and MDA-MB-231 cells. […] Cholesterol synthesis, however, accounts for less than 10% of the total lipogenic activity in LNCaP and MDA-MB-231 cancer cells, whereas ˜75 and 15% of the lipogenic activity in these cells represents phospholipid and triglyceride synthesis, respectively.

HT29 = experiment: MTT cell viability assay, HT29; format: cell-based, human; conditions: HT29, Colon, 3 days culture
Protocol: as §1

Widr = experiment: MTT cell viability assay, Widr; format: cell-based, human; conditions: Colon, 3 days culture
Protocol: as §1

Jurkat T cell = experiment: MTT cell viability assay, Jurkat T cell; format: cell-based, human; conditions: Leukemia, 3 days culture
Protocol: as §1

IGROV1 = experiment: MTT cell viability assay, IGROV1; format: cell-based, human; conditions: IGROV1, Ovary, 3 days culture
Protocol: as §1

G-361 = experiment: MTT cell viability assay, G-361; format: cell-based, human; conditions: G-361, Skin, 3 days culture
Protocol: as §1

LNCAP = experiment: MTT cell viability assay, LNCAP; format: cell-based, human; conditions: Prostate, 3 days culture
Protocol: as §1

[2] = system: FAS protein levels in LNCaP cells; experiment: Western blot analysis for FAS protein levels; format: cell-based, human
ACHN = experiment: MTT cell viability assay, ACHN; format: cell-based, human; conditions: Kidney, 3 days culture
Protocol: as §1

CCL-247 = experiment: MTT cell viability assay, CCL-247; format: cell-based, human; conditions: CCL-247, Colon, 3 days culture
Protocol: as §1

LoVo = experiment: MTT cell viability assay, LoVo; format: cell-based, human; conditions: Colon, 3 days culture
Protocol: as §1

MDA-MB-435 = experiment: MTT cell viability assay, MDA-MB-435; format: cell-based, human; conditions: MDA-MB-435, Breast, 3 days culture
Protocol: as §1

Mid PaCa-2 = experiment: MTT cell viability assay, Mid PaCa-2; format: cell-based, human; conditions: Mid PaCa-2, Pancreas, 3 days culture
Protocol: as §1

A549 = experiment: MTT cell viability assay, A549; format: cell-based, human; conditions: A549, Lung, 3 days culture
Protocol: as §1

MDA-MB-231 = experiment: MTT cell viability assay, MDA-MB-231; format: cell-based, human; conditions: MDA-MB-231, Breast, 3 days culture
Protocol: as §1

PC3 = experiment: MTT cell viability assay, PC3; format: cell-based, human; conditions: PC3, Prostate, 3 days culture
Protocol: as §1

MCF-10a = experiment: MTT cell viability assay, MCF-10a normal breast epithelial cells; format: cell-based, human
Protocol: as §1

estrogen receptor = conditions: mediated by the estrogen receptor; cited from earlier work
BT-549 = experiment: MTT cell viability assay, BT-549; format: cell-based, human; conditions: BT-549, Breast, 3 days culture
Protocol: as §1

Raji = experiment: MTT cell viability assay, Raji; format: cell-based, human; conditions: Lymphoma, 3 days culture
Protocol: as §1

786-O = experiment: MTT cell viability assay, 786-O; format: cell-based, human; conditions: Kidney, 3 days culture
Protocol: as §1

U-251 = experiment: MTT cell viability assay, U-251; format: cell-based, human; conditions: U-251, Glioblastoma, 3 days culture
Protocol: as §1

SK-MEL-5 = experiment: MTT cell viability assay, SK-MEL-5; format: cell-based, human; conditions: SK-MEL-5, Skin, 3 days culture
Protocol: as §1

SN12C = experiment: MTT cell viability assay, SN12C; format: cell-based, human; conditions: Kidney, 3 days culture
Protocol: as §1

Caki-1 = experiment: MTT cell viability assay, Caki-1; format: cell-based, human; conditions: Caki-1, Kidney, 3 days culture
Protocol: as §1

SKOV3 = experiment: MTT cell viability assay, SKOV3; format: cell-based, human; conditions: SKOV3, Ovary, 3 days culture
Protocol: as §1

HCT-116 = experiment: MTT cell viability assay, HCT-116; format: cell-based, human; conditions: HCT-116, Colon, 3 days culture
Protocol: as §1

AU-565 = experiment: MTT cell viability assay, AU-565; format: cell-based, human; conditions: AU-565, Breast, 3 days culture
Protocol: as §1

MCF-7 = experiment: MTT cell viability assay, MCF-7; format: cell-based, human; conditions: MCF-7, Breast, 3 days culture
Protocol: as §1

CCL-225 = experiment: MTT cell viability assay, CCL-225; format: cell-based, human; conditions: CCL-225, Colon, 3 days culture
Protocol: as §1

NCI-H23 = experiment: MTT cell viability assay, NCI-H23; format: cell-based, human; conditions: NCI-H23, Lung, 3 days culture
Protocol: as §1

[3] = system: highly metastatic human lung cancer cells (PG); conditions: PG cells in vitro; cited from earlier work
[4] = system: hepatoma or leukemia cell lines; conditions: other studies; cited from earlier work

CC(C)=CCc1c(O)cc(O)c2c(=O)c(O)c(-c3ccc(O)cc3)oc12 [Desmethylicaritin]
IC50 (D145): 9.8 µM | synthesis of cholesterol ([1]; LNCaP and MDA-MB-231 cells): decreased | synthesis of phospholipids and of triglycerides ([1]; LNCaP cells and MDA-MB-231 cells): affected | IC50 (HT29): 16.8 µM | IC50 (Widr): 11.3 µM | IC50 (Jurkat T cell): 4.9 µM | IC50 (IGROV1): 11.2 µM | IC50 (G-361): 7.4 µM | IC50 (LNCAP): 6.1 µM | FAS protein levels (Western blot) [2]: did not influence | IC50 (ACHN): 9.7 µM | IC50 (CCL-247): 17.6 µM | IC50 (LoVo): 10.5 µM | IC50 (MDA-MB-435): 12.7 µM | IC50 (Mid PaCa-2): 8.6 µM | IC50 (A549): 10.7 µM | IC50 (MDA-MB-231): 6.5 µM | IC50 (PC3): 10.6 µM | IC50 (MCF-10a; MCF-10a, Normal breast epithelial cells, 3 days culture, MTT): > 50 µM | sensitivity of normal human mammary gland epithelial cells (MCF10A) (MCF-10a; cells grew well at 50 uM): not sensitive | estrogenic effect (estrogen receptor): week phytoestrogens | IC50 (BT-549): 9.6 µM | IC50 (Raji): 5.2 µM | IC50 (786-O): 10.9 µM | IC50 (U-251): 7.3 µM | IC50 (SK-MEL-5): 10.8 µM | IC50 (SN12C): 15.9 µM | IC50 (Caki-1): 7.5 µM | IC50 (SKOV3): 10.4 µM | IC50 (HCT-116): 6.9 µM | IC50 (AU-565): 8.9 µM | IC50 (MCF-7): 24.8 µM | IC50 (CCL-225): 8.9 µM | IC50 (NCI-H23): 6.5 µM

COc1ccc(-c2oc3c(CC=C(C)C)c(O[C@@H]4O[C@H](CO)[C@@H](O)[C@H](O)[C@H]4O)cc(O)c3c(=O)c2O[C@@H]2O[C@@H](C)[C@H](O)[C@@H](O)[C@H]2O)cc1 [ICA, Icariin]
PG cells adhesive ratio to laminin substrate [3]: decreased | ability of invasion or migration [3]: decreased | cAMP/cGMP ratio [3]: increased | distribution of PG cells cycle [3]: reduce S phase | expression of membrane HLA-ABC antigen [3]: increase | level of cAMP in PG cells [3]: increased | level of cGMP [3]: reduced | membrane fluidity of PG [3]: enhance | inhibition of hepatoma or leukemia cell lines [4]: no inhibition
